This note sets out measurements from ChEMBL document CHEMBL2203235, “Optimization of a natural product-based class of γ-secretase modulators” (J Med Chem, 2012).

One series relates to Liver microsomes. The series can be described thus: Metabolic stability in human liver microsomes at 1 uM after 60 mins by LC/MS/MS analysis. The note with it: 1 h.
Series [1] can be described thus: Modulation of gamma secretase in CHO-2B7 cells assessed as reduction in amyloid beta 40 level after 5 hrs by MSD ELISA. Conditions: Cricetulus griseus, CHO-2B7, 5 h. The series is classed as cell-based.
A short description of series [2]: Modulation of gamma secretase in CHO-2B7 cells assessed as reduction in amyloid beta 42 level after 5 hrs by MSD ELISA. The series is classed as cell-based. Conditions: Cricetulus griseus, CHO-2B7, 5 h.

For orientation: IC50 means the concentration at which inhibition is half-maximal. On to `CCO[C@@H]([C@H]1C[C@@H](C)[C@H]2[C@H](O1)[C@H](O)[C@@]1(C)[C@@H]3CC[C@H]4C(C)(C)[C@@H](O[C@H]5CN(CCN(C)C)CCO5)CC[C@@]45C[C@@]35CC[C@]21C)C(C)(C)O`, for which, in the series on Liver microsomes, the Stability entry is “Stable”. Further, the IC50 worked out at 3.2 µM in series [1] and 0.13 µM in series [2].
Turning to `CC(C)[C@@H](OC(=O)N1CCC1)[C@H]1C[C@@H](C)[C@H]2[C@H](O1)[C@H](O)[C@@]1(C)[C@@H]3CC[C@H]4C(C)(C)[C@@H](OC(=O)NCCNS(=O)(=O)C(F)(F)F)CC[C@@]45C[C@@]35CC[C@]21C`, in the series on Liver microsomes, the Stability entry is “Stable”. The IC50 was 11 µM in series [1] and 1.5 µM in series [2].
For the compound `CCO[C@@H]([C@H]1C[C@@H](C)[C@H]2[C@H](O1)[C@H](O)[C@@]1(C)[C@@H]3CC[C@H]4C(C)(C)[C@@H](OC(=O)NC5COC5)CC[C@@]45C[C@@]35CC[C@]21C)C(C)(C)O`, the Stability result with Liver microsomes is recorded as “Stable”. The IC50 worked out at 5 µM in series [1] and 0.14 µM in series [2].
Take `CCO[C@@H]([C@H]1C[C@@H](C)[C@H]2[C@H](O1)[C@H](O)[C@@]1(C)[C@@H]3CC[C@H]4C(C)(C)[C@@H](O[C@H]5CN([C@@H]6CCOC6)CCO5)CC[C@@]45C[C@@]35CC[C@]21C)C(C)(C)O`: the Stability result in the series on Liver microsomes is “Stable”. Moreover, the figures for the IC50 in series [1] and in series [2] were 3 µM and 0.18 µM, respectively.
`CCO[C@@H]([C@H]1C[C@@H](C)[C@H]2[C@H](O1)[C@H](O)[C@@]1(C)[C@@H]3CC[C@H]4C(C)(C)[C@@H](OC(=O)N[C@H]5CCNC5=O)CC[C@@]45C[C@@]35CC[C@]21C)C(C)(C)O`: in the series on Liver microsomes, the Stability result is reported as “Stable”. Moreover, the IC50 in series [1] stood at 2.9 µM; in series [2] it was 0.19 µM.
As to `CC(C)[C@@H](OC(=O)N1CCC1)[C@H]1C[C@@H](C)[C@H]2[C@H](O1)[C@H](O)[C@@]1(C)[C@@H]3CC[C@H]4C(C)(C)[C@@H](OC(=O)NCCCC(=O)O)CC[C@@]45C[C@@]35CC[C@]21C`, the Stability entry with Liver microsomes is on record as “Stable”. Besides, the IC50 is 7.2 µM in series [1] and 0.28 µM in series [2].
With `CC(C)[C@@H](OC(=O)N1CCC1)[C@H]1C[C@@H](C)[C@H]2[C@H](O1)[C@H](O)[C@@]1(C)[C@@H]3CC[C@H]4C(C)(C)[C@@H](OC(=O)N(C)CC(=O)O)CC[C@@]45C[C@@]35CC[C@]21C`, the Stability entry with Liver microsomes is listed as “Stable”. Further, the results for the IC50 in series [1] and in series [2] were 0.48 µM and 1.79 µM, respectively.
Take `CC(C)[C@@H](OC(=O)N1CCC1)[C@H]1C[C@@H](C)[C@H]2[C@H](O1)[C@H](O)[C@@]1(C)[C@@H]3CC[C@H]4C(C)(C)[C@@H](OC(=O)N5CC(NCC(F)(F)F)C5)CC[C@@]45C[C@@]35CC[C@]21C`: in the series with Liver microsomes, the Stability entry is reported as “Stable”. Further, the IC50 was 11 µM in series [1] and 0.75 µM in series [2].
The matching figures for `CCO[C@@H]([C@H]1C[C@@H](C)[C@H]2[C@H](O1)[C@H](O)[C@@]1(C)[C@@H]3CC[C@H]4C(C)(C)[C@@H](O[C@H]5CN(CCO)CCO5)CC[C@@]45C[C@@]35CC[C@]21C)C(C)(C)O`: “Stable”, 3.7 µM and 0.26 µM.
Take `CC(C)[C@@H](OC(=O)N1CCC1)[C@H]1C[C@@H](C)[C@H]2[C@H](O1)[C@H](O)[C@@]1(C)[C@@H]3CC[C@H]4C(C)(C)[C@@H](O[C@H]5CN(CCCC(=O)O)CCO5)CC[C@@]45C[C@@]35CC[C@]21C`: the Stability result in the series with Liver microsomes was “Stable”. Moreover, the IC50 in series [1] stood at 7.5 µM; in series [2], 0.28 µM.
The matching figures for `CCO[C@@H]([C@H]1C[C@@H](C)[C@H]2[C@H](O1)[C@H](O)[C@@]1(C)[C@@H]3CC[C@H]4C(C)(C)[C@@H](O[C@H]5CN(C(=O)CC6CNC6)CCO5)CC[C@@]45C[C@@]35CC[C@]21C)C(C)(C)O`: “Stable”, 2.5 µM and 0.12 µM.
Turning to `C[C@@H]1C[C@H]([C@H](O)C(C)(C)O)O[C@H]2[C@H]1[C@@]1(C)CC[C@@]34C[C@@]35CC[C@H](OC(=O)NCCN(C)C)C(C)(C)[C@@H]5CC[C@H]4[C@]1(C)[C@H]2O`, in series [2], the IC50 was found to be 5.7 µM.
On to `CCO[C@@H]([C@H]1C[C@@H](C)[C@H]2[C@H](O1)[C@H](O)[C@@]1(C)[C@@H]3CC[C@H]4C(C)(C)[C@@H](O[C@H]5CN(CCN6CCC6)CCO5)CC[C@@]45C[C@@]35CC[C@]21C)C(C)(C)O`, for which the Stability entry in the series with Liver microsomes is listed as “Stable”. Also, the IC50 in series [1] was 2.9 µM; in series [2], 0.11 µM.
With `CNC(=O)O[C@H]1CC[C@]23C[C@]24CC[C@]2(C)[C@@H]5[C@H](O[C@@H]([C@H](OC(=O)N6CCC6)C(C)C)C[C@H]5C)[C@H](O)[C@@]2(C)[C@@H]4CC[C@H]3C1(C)C`, the Stability entry with Liver microsomes is listed as “Stable”. Besides, the IC50 in series [1] was 8.7 µM; in series [2] it was 0.76 µM.
For `CCO[C@@H]([C@H]1C[C@@H](C)[C@H]2[C@H](O1)[C@H](O)[C@@]1(C)[C@@H]3CC[C@H]4C(C)(C)[C@@H](O[C@H]5CN(CC)CCO5)CC[C@@]45C[C@@]35CC[C@]21C)C(C)(C)O`, in the series with Liver microsomes, the Stability entry is reported as “Stable”. Besides, the IC50 was determined as 2.7 µM in series [1] and 0.21 µM in series [2].
Take `CCO[C@@H]([C@H]1C[C@@H](C)[C@H]2[C@H](O1)[C@H](O)[C@@]1(C)[C@@H]3CC[C@H]4C(C)(C)[C@@H](O[C@H]5CN([C@H]6CCOC6)CCO5)CC[C@@]45C[C@@]35CC[C@]21C)C(C)(C)O`: in the series with Liver microsomes, the Stability result was “Stable”. The IC50 in series [1] was determined as 6.2 µM; in series [2], 0.42 µM.
As to `CC(C)[C@@H](OC(=O)N1CCC1)[C@H]1C[C@@H](C)[C@H]2[C@H](O1)[C@H](O)[C@@]1(C)[C@@H]3CC[C@H]4C(C)(C)[C@@H](OC(=O)NCC(=O)O)CC[C@@]45C[C@@]35CC[C@]21C`, the Stability result in the series on Liver microsomes is on record as “Stable”. For the same compound, the values for the IC50 in series [1] and in series [2] were 7.2 µM and 0.42 µM, respectively.
For `CC(C)[C@@H](OC(=O)N1CCC1)[C@H]1C[C@@H](C)[C@H]2[C@H](O1)[C@H](O)[C@@]1(C)[C@@H]3CC[C@H]4C(C)(C)[C@@H](OC(=O)N[C@H]5CCNC5=O)CC[C@@]45C[C@@]35CC[C@]21C`, the Stability entry in the series on Liver microsomes is “Stable”. Besides, the IC50 in series [1] is 1 µM; in series [2] it was 0.4 µM.
Regarding `CCO[C@@H]([C@H]1C[C@@H](C)[C@H]2[C@H](O1)[C@H](O)[C@@]1(C)[C@@H]3CC[C@H]4C(C)(C)[C@@H](O[C@H]5CN(CCN6CCOC6=O)CCO5)CC[C@@]45C[C@@]35CC[C@]21C)C(C)(C)O`, the Stability entry in the series on Liver microsomes is “Stable”. In addition, the IC50 in series [1] stood at 1.9 µM; in series [2], 0.15 µM.
Consider `C[C@@H]1C[C@H]([C@H](O)C(C)(C)O)O[C@H]2[C@H]1[C@@]1(C)CC[C@@]34C[C@@]35CC[C@H](OC(=O)NC3CN6CCC3CC6)C(C)(C)[C@@H]5CC[C@H]4[C@]1(C)[C@H]2O` (some centres undefined), for which the IC50 in series [2] is 0.58 µM.
As for `CCO[C@@H]([C@H]1C[C@@H](C)[C@H]2[C@H](O1)[C@H](O)[C@@]1(C)[C@@H]3CC[C@H]4C(C)(C)[C@@H](OC(=O)N5CCN(CC(=O)O)CC5)CC[C@@]45C[C@@]35CC[C@]21C)C(C)(C)O`, the Stability result with Liver microsomes is recorded as “Stable”. Moreover, the IC50 in series [1] stood at 10 µM; in series [2], 0.29 µM.
Regarding `C[C@@H]1C[C@H]([C@H](O)C(C)(C)O)O[C@H]2[C@H]1[C@@]1(C)CC[C@@]34C[C@@]35CC[C@H](OC(=O)N3CCOCC3)C(C)(C)[C@@H]5CC[C@H]4[C@]1(C)[C@H]2O`, the IC50 in series [2] amounted to 9 µM.
Regarding `CCO[C@@H]([C@H]1C[C@@H](C)[C@H]2[C@H](O1)[C@H](O)[C@@]1(C)[C@@H]3CC[C@H]4C(C)(C)[C@@H](OC(=O)N5CCC5)CC[C@@]45C[C@@]35CC[C@]21C)C(C)(C)O`, the Stability result in the series on Liver microsomes is given as “Stable”. In addition, the figures for the 50% inhibitory concentration (IC50) in series [1] and in series [2] were 5 µM and 0.14 µM, respectively.
For the compound `CC(=O)N1CCN(C(=O)O[C@H]2CC[C@]34C[C@]35CC[C@]3(C)[C@@H]6[C@H](O[C@@H]([C@H](OC(=O)N7CCC7)C(C)C)C[C@H]6C)[C@H](O)[C@@]3(C)[C@@H]5CC[C@H]4C2(C)C)CC1`, the Stability entry in the series with Liver microsomes is reported as “Stable”. The IC50 in series [1] was 5.1 µM; in series [2], 0.19 µM.
For the compound `CCO[C@@H]([C@H]1C[C@@H](C)[C@H]2[C@H](O1)[C@H](O)[C@@]1(C)[C@@H]3CC[C@H]4C(C)(C)[C@@H](OC(=O)N[C@@H]5CCNC5=O)CC[C@@]45C[C@@]35CC[C@]21C)C(C)(C)O`, in the series with Liver microsomes, the Stability result is on record as “Stable”. The values for the IC50 in series [1] and in series [2] were 2.5 µM and 0.14 µM, respectively.
For the compound `C[C@@H]1C[C@H]([C@H](O)C(C)(C)O)O[C@H]2[C@H]1[C@@]1(C)CC[C@@]34C[C@@]35CC[C@H](OC(=O)N3CCC3)C(C)(C)[C@@H]5CC[C@H]4[C@]1(C)[C@H]2O`, the IC50 in series [2] turned out to be 13 µM.
On to `CC(C)CC(=O)N1CCO[C@@H](O[C@H]2CC[C@]34C[C@]35CC[C@]3(C)[C@@H]6[C@H](O[C@@H]([C@H](OC(=O)N7CCC7)C(C)C)C[C@H]6C)[C@H](O)[C@@]3(C)[C@@H]5CC[C@H]4C2(C)C)C1`, for which, in the series with Liver microsomes, the Stability entry is “Stable”. Also, the IC50 in series [1] stood at 11 µM; in series [2] it was 1.3 µM.
`CC(=O)O[C@@H]([C@H]1C[C@@H](C)[C@H]2[C@H](O1)[C@H](O)[C@@]1(C)[C@@H]3CC[C@H]4C(C)(C)[C@@H](O)CC[C@@]45C[C@@]35CC[C@]21C)C(C)(C)O`: the IC50 in series [2] worked out at 0.6 µM.
